Drawing on patent publication US8481522B2, “Platinum-N-heterocyclic carbene derivatives, preparation thereof and therapeutic use thereof” (Sanofi, priority 2008, dated 2013), this text covers IC50 for 13 compounds.

One may read the IC50 as the point on the concentration scale where inhibition reaches its midpoint.

The subject of experiment [1] is CCRF-CEM cells. Kind of experiment: Cytotoxicity, non-adherent CCRF-CEM cells, CellTiter-Glo luminescent cell viability. It is filed as cell-based. The conditions noted are these: CCRF-CEM human T leukaemia, 96 h incubation. On the procedure: CCRF-CEM is a human T leukaemia (Cancer 1965, 18: 522-529). Oxaliplatin induces bifunctional lesions such as inter- and intra-DNA strand adducts on these CCRF-CEM cells (Mol Pharmacol 2000, 58: 920-927). […] This deficiency makes these cells particularly […] to alkylating agents and to platinum compounds.
For the non-adherent CCRF-CEM cells, the cell viability is measured by the luminescence test CellTiter-Glo® Luminescent Cell Viability Assay (Promega, Madison, Wis., USA). When it is added to the cells, the reagent produces a luminescence in the presence of the ATP of the living cells. The results are evaluated on a suitable reader (Envision, Perkin-Elmer Life Sciences, Boston, Mass., USA).
The CCRF-CEM cells are cultured in RPMI1640 medium containing 10% foetal calf serum, 2 mM L-glutamine, 100 units/ml of penicillin and […] of streptomycin, at 37° C. in a 95% air/5% CO2 atmosphere. The cells, at the exponential growth phase, are introduced into the wells of a 96-well plate at the density of 5×10^3 cells per well in an opaque plate (Greiner), in a volume of 150 μl. After incubating for 4 h at 37° C. in a 95% air/5% CO2 atmosphere, the compounds (concentrated 20-fold) are added in a volume of 8 μl. The compounds are prepared beforehand as a stock solution at the concentration of 10 mM in DMSO. A serial dilution is performed before the compounds are brought into contact with the cells. After incubating for 96 h at 37° C., 100 μl of agents (CellTiter-Glo) are added. After lysing the cells, the release of ATP is evaluated on the Envision reader.
(§1) The IC50 values are evaluated from curves presenting the percentage viability as a function of the concentration of the test compound, using the Biostat speed software. The IC50 is defined as the concentration of the compound which inhibits 50% of the cell proliferation or 50% of the cell viability.
For orientation: ATP-based viability assays read luminescence as a measure of living cells.

Experiment [2] concerns H460. Kind of experiment: Cytotoxicity, adherent cells, 14C-thymidine incorporation (cell proliferation). Type of experiment: cell-based. The conditions noted are these: NCI-H460 human non-small cell lung cancer, 96 h treatment. On the procedure:
NCI-H460 is a human non-small cell lung cancer which has a mutation in the K-ras gene. This cell is sensitive to platinum compounds. In this cell line, cisplatin forms more adducts than oxaliplatin at the same concentration and yet the percentage repair is higher for oxaliplatin (DNA Repair 2006, 5: 219-225).
Cell proliferation is evaluated by the incorporation of ^14C-thymidine into the DNA of the cells. A549, CH1, CH1/DDP and H460 are cultured in Dulbecco's modified Eagle's medium (DMEM), SK-OV-3 in Mc-Coy medium, A2780 and A2780/DDP in RPMI1640 medium. All the media contain 10% foetal calf serum, 2 mM L-glutamine, 100 units/ml of penicillin and […] of streptomycin. The incubation is performed at 37° C. in a 95% air/5% CO2 atmosphere.
The cells, at the exponential growth phase, are introduced into the wells of a Cytostar 96-well plate, containing a scintillation fluid (Cytostar-T scintillating microplate, GE Healthcare Bio-Sciences AB, Uppsala, Sweden), at the density of 5×10^3 to 10^4 cells per well, in an amount of 180 μl per well. After incubating for 4 hours, the test compounds are added. The compounds are prepared beforehand as a stock solution at the concentration of 10 mM in DMSO. A serial dilution is performed before the compounds are brought into contact with the cells in a volume of 10 μl. After incubating for 72 hours at 37° C. in an atmosphere of 95% air/5% CO2, 0.1 μCi/well of ^14C-thymidine is added. 24 h later (total 96 h of treatment), the incorporation of ^14C-thymidine is recorded on a suitable scintillation counter (MicroBeta radioactivity counting, Perkin-Elmer Life Sciences, Boston, Mass., USA). The mean values obtained in the experimental groups are divided by the mean values obtained in the control groups in order to obtain percentages relative to the controls.
as §1
On the technique in general: Uptake of a labelled nucleoside into DNA is a usual measure of proliferation.

Consider `[I][Pt-]([I])([NH2+]C1CCCCC1)=[c]1n(C2CCCCC2)ccn1C1CCCCC1` [Example 18, trans-diiodo(N-cyclohexylamine)(1,3-dicyclohexylimidazol-2-ylidene)platinum(II)], for which the IC50 in experiment [1] came out at 1400 nM; in experiment [2], 2700 nM.
`C[n+]1c(-c2ccccc2)c(-c2ccccc2)n(Cc2ccccc2)[c]1[Pt-2]([I])([I])[NH2+]C1CCCCC1` [Example 26, trans-diiodo(N-cyclohexylamine)[3-benzyl-4,5-diphenyl-1-methyl-imidazol-2-ylidene]platinum (II)]: the IC50 in experiment [1] came out at 1200 nM; in experiment [2] it was 2900 nM.
For `Cn1ccn(Cc2ccccc2)[c]1=[Pt-]([I])([I])[NH+]1CCOCC1` [Example 31, trans-diiodo(N-morpholine)(1-methyl-3-benzylimidazol-2-ylidene)-platinum(II)], in that order: 700 nM and 900 nM.
Regarding `C[n+]1ccn(Cc2cccc(C(F)(F)F)c2)[c]1[Pt-2]([I])([I])[NH2+]C1CCCCC1` [Example 33, trans-diiodo(N-cyclohexylamine)[1-methyl-3-(3-trifluoromethylbenzyl)imidazol-2-ylidene]platinum(II)], the IC50 in experiment [1] is 700 nM; in experiment [2], 800 nM.
Consider `Cn1c(-c2ccccc2)c[n+](C)[c]1[Pt-2]([I])([I])[NH2+]C1CCCCC1` [Example 20, trans-diiodo(N-cyclohexylamine)[1,3-dimethyl-4-phenylimidazol-2-ylidene]platinum(II)], for which the figures for the IC50 in experiment [1] and in experiment [2] were 2100 nM and 4400 nM, respectively.
`CN1CCC([NH2+][Pt-]([I])([I])=[c]2n(C)ccn2Cc2ccccc2)CC1` [Example 27, trans-diiodo[N-(1-methylpiperidin-4-ylamine)](1-methyl-3-benzyl-imidazol-2-ylidene)platinum(II)]: the concentration for half-maximal inhibition (IC50) worked out at 1600 nM in experiment [1] and 1700 nM in experiment [2].
Taken in the same sequence, the figures for `COc1cccc(Cn2cc[n+](C)[c]2[Pt-2]([I])([I])[NH2+]C2CCCCC2)c1` [Example 32, trans-diiodo(N-cyclohexylamine)[3-(3-methoxybenzyl)-1-methyl-imidazol-2-ylidene]platinum(II)] were 1200 nM and 1400 nM.
Taken in the same sequence, the figures for `CCC(CC)[NH2+][Pt-]([I])([I])=[c]1n(C)ccn1Cc1ccccc1` [Example 28, trans-diiodo(N-pentan-3-ylamine)(1-methyl-3-benzylimidazol-2-ylidene)platinum(II)] were 1400 nM and 1600 nM.
For `Cn1ccn(Cc2ccccc2)[c]1=[Pt-]([I])([I])[NH2+]C1CCCC1` [Example 30, trans-diiodo(N-cyclopentylamine)(1-methyl-3-benzylimidazol-2-ylidene)platinum(II)], in that order: 1100 nM and 1300 nM.
As for `Cn1ccn(-c2ccccc2)[c]1=[Pt-]([I])([I])[NH2+]C1CCCCC1` [Example 4, trans-diiodo(N-cyclohexylamine)(1-methyl-3-phenylimidazol-2-ylidene)platinum(II)], the concentration for half-maximal inhibition (IC50) in experiment [1] is 1500 nM; in experiment [2] it was 2300 nM.
As for “trans-diiodo(N-cyclohexylamine)[3-benzyl-1-methyl-4-phenylimidazol-2-ylidene]platinum(II) [Example 21]”, the half-inhibitory concentration (IC50) in experiment [1] stood at 900 nM; in experiment [2], 1900 nM.
As for `Cn1ccn(C)[c]1=[Pt-]([I])([I])[NH2+]C1CC2CCC1C2` (racemic) [Example 6, trans-diiodo(N-exo(+/−)bicyclo[2.2.1]heptylamine)(1,3-dimethyl-imidazol-2-ylidene)platinum(II)], the IC50 in experiment [1] worked out at 1700 nM; in experiment [2] it was 2800 nM.
With `Cn1c(=O)c2c(n(C)c1=O)n(C)[c](=[Pt]([I])([I])[NH]C1CC3CCC1C3)n2C` (racemic) [Example 25, trans-diiodo(N-exo(+/−)bicyclo[2.2.1]heptylamine) (1,3,7,9-tetramethylxanthin-8-ylidene)platinum(II)], the IC50 in experiment [1] was 1000 nM; in experiment [2], 1500 nM.
